# Laboratory results: US8791128B2, “Compositions for treating or delaying the onset of hair loss” (University of Central Florida Research Foundation, Inc., priority 2008, dated 2014)
# Entries after “also recorded” stand apart in the source; their conditions may differ.
# Assays:
# human NSCs = test: Proliferation of human NSCs in culture; format: cell-based
# [1] = tested on: cells in the brain of rodents; test: NBI-18 injections: cell proliferation and neurogenesis in rodent brain; format: in vivo
# [2] = tested on: BrdU positive cells of the epidermis; test: Topical application study: BrdU immunohistochemistry of epidermis; format: in vivo, C57 BL/6 mice
# Method: (§1) Based on the inventors' realizations, the decision was made to test NBI-18 in a topical application study to induce the genesis or re-growth of hair. Varying doses of NBI-18 [0.75 mg/ml, 1.5 mg/ml, 3.0 mg/ml, and control (50% ETOH)] was delivered in 5 ul drops to shaved locations on the back of C57 BL/6 mice. The varying doses were given 5 consecutive days and on day 4 and 5 BrdU (100 mg/kg, ip) was injected. […] NBI-18 has proven to produce a desired affect in rodent models that show a predominant re-growth of hair using the topical application of the small molecular pyrimidine compound known as NBI-18. We are hypothesizing that NBI-18 treatment will lead to greater cytogenesis and eventually lead to a commercial product that will eradicate hair loss. These studies will be further described in the Examples provided below.
# In this study, the inventors determined a dose range where keratinogenesis occurs in healthy mice to help us learn about the fate of newly formed cells within the epidermis. […] In order for us to eliminate unnecessary anesthesia, our vehicle of delivery was 50% Ethanol (ETOH). NBI-18 was suspended in 50% ETOH using the concentrations of 0.75 mg/ml, 1.5 mg/ml, 3.0 mg/ml, and control (50% ETOH) respectively.
# A. Two C57 BL/6 mice were selected for the topical application study of NBI-18. The mice were prepped by shaving four specific locations lateral/dorsal in a circular pattern. NBI-18 was delivered to the specified areas (right, counterclockwise from lowest to highest dose, then control) in concentrations of 1.5 mg/ml, 3.0 mg/ml, 6.0 mg/ml and control (50% ETOH) respectively. The solutions were applied to the center of these locations in a 5 ul dose for 5 consecutive days and on days 4 and 5 BrdU (100 mg/K, ip) was injected. On day 7 the mice were euthanized using a high dose pentobarbital (70 mg/kg, ip) and the treated epidermis was dissected and placed into 4% paraformaldehyde fixative for 48 hour
# Immunohistochemistry of epidermis. Epidermal sections were mounted into square embedding molds with freezing medium (O.C.T. compound, Tissue Tek), sliced in 20 uM sections then mounted onto adhesive coated slides (Instrumedics, Inc) via tape transfer method. Slides were washed with PBS then placed in 2NHCL for 30 minutes to […]. Slides were then washed again with PBS, then blocked using 3% Donkey serum in PBST for 1 hour. Primary anti-body suspended in blocking solution used was anti-BrdU (sigma) at 1:1000 overnight in 4C. Slide were washed 3× then placed in secondary anti-body suspended in blocking solution, FITC (Jackson ImmunoResearch) at 1:500 for 2 hours at room temperature then washed with PBS. Slides were mounted using Vectashield with Dapi. […]
# hair re-growth = test: Topical application study: hair re-growth on shaved skin; format: in vivo, C57 BL/6 mice; conditions: topical 0.75, 1.5, 3.0 mg/ml, 5 consecutive days
# Method: as §1
# B. Four C57 BL/6 mice were selected for the topical application study of NBI-18. The mice were prepped by shaving four specific locations lateral/dorsal in a circular pattern. NBI-18 was delivered to the specified areas (right, counterclockwise from lowest to highest dose, then control) in concentrations of 0.75 mg/ml, 1.5 mg/ml, and 3.0 mg/ml, and control (50% ETOH) respectively. The solutions were applied to the center of these locations in a 5 ul dose for 5 consecutive days and on days 4 and 5 BrdU (100 mg/K, ip) was injected. […]
# [3] = Toxicity study (i.p., 7 days; rotarod, open field, postural reflex, forelimb placing); format: in vivo, C57 BL/6 mice; conditions: 100, 300, 1000 mg/kg/day i.p. for 7 days
# Method: A total of 16 male C57 BL/6 mice (12 weeks old) weighing 25-30 g were used to investigate the toxicity of NBI-18. The mice were maintained on a 12-h light/dark cycle, and had free access to food and water through the study period. These animals were housed four per cage. In this study, animals were divided into four groups (four/group). Acute toxicity has been tested up to 1000 mg/kg. NBI-18 (0, 100, 300,1000 mg/kg/day, i.p.) was injected for 7 days and for the control group, the same volume of vehicle saline was injected. Bromodeoxyuridine (BrdU)(Sigma Chemical Co., St Louis, Mo.), was injected (100 mg/kg/day, i.p.) for the last three days (days 5-7). For behavioral testing, rotarod and open field tests were used to examine balance and coordination of mice before, during and after NBI-18 injection. Also, postural reflex and forelimb placing tests were performed to evaluate the neurological functions for the animals. All the animals were anesthetized with pentobarbital (i.p.) 48 h after the last BrdU injection and immediately per fused with 4% paraformaldehyde fixative. The brains were immediately dissected, post fixed for 24 h and processed for immunohistochemistry.
# [4] = Ames test by a third party; conditions: third party company
# Description: (§2) U.S. Pat. Nos. 4,959,368; 5,976,523. One derivative of interest is heterocyclic pyrimidine molecule referred to herein as ‘NBI-18’ (2-piperadino-6-methyl-5-oxo-5,6-dihydro-(7H) pyrrolo-[3,4-d]pyrimidine maleate; Mwt. 349.54). […] U.S. Patent Pub 20030139410. The mechanism of action of NBI-18 is not known, although some evidence implies the activation of the MAPK (mitogen activated protein kinase) pathway, a cascade that is also activated by peptide growth factors. […] NBI-18 has been tested in isolated animal models—axon growth in mice and muscle regeneration in rats—with no evidence of mechanistic details relating to function. Mechanism of action studies to find the drug target, are planned as part of our ongoing research. Upon learning about the availability of NBI-18 family of molecules, it was hypothesized that the compounds may be involved in the proliferation process of Stem Cells and the inventors decided to examine the possible implication for genesis of Keratinocyte Stem Cells (KSCs) or possibly the human bulge cells which provide the niche for KSCs, in animal models.
# [5] = Absorption and half-life in rodents (HPLC analysis); format: in vivo, rat
# Description: as §2
# [6] = Extraction of NBI-18 from epidermis of treated mice; format: in vivo; conditions: 24 hours post-injection
# Description: as §2
# rodent cortical neurons = conditions: cited from earlier work
# [7] = daily injections for five days, rodents
compound,measurement,setting,value
"CN1Cc2nc(N3CCCCC3)ncc2C1=O.O=C(O)/C=C\C(=O)O [NBI-18, 2-piperadino-6-methyl-5-oxo-5,6-dihydro-(7H) pyrrolo-[3,4-d]pyrimidine maleate]",proliferation of human NSCs,human NSCs,stimulate the proliferation
same,dose dependence of the increase in proliferation,[1]; animal studies,dose dependent
same,neurogenesis,"[1]; daily injections for five days, at four weeks, young and aged rodents",stable neurogenesis
same,pathological effects,[1]; [7],no discernible pathological effects
same,symptoms of toxicity,[1]; [7],no symptoms of toxicity
same,proliferation of cells in the brain,"[1]; injections 5 mg/kg, rodents",increased proliferation
same,newly developed (BrdU) cells versus control,"[2]; Example 3A, topical 1.5, 3.0, 6.0 mg/ml, 5 ul, 5 days, FIG. 1",mass increases of newly developed cells
same,migration pattern of new cells,"[2]; Example 3A, topical 1.5, 3.0, 6.0 mg/ml, FIG. 1",alignment towards migration patterns
same,dose dependence of the elevation in BrdU positive stained cells,"[2]; topical 0.75, 1.5, 3.0 mg/ml in 50% ETOH",did not demonstrate a dose dependent increase
same,BrdU positive (proliferating) cells in comparison to control,"[2]; topical 0.75, 1.5, 3.0 mg/ml in 50% ETOH, 5 ul, 5 consecutive days",abundant increase in proliferating cells; also recorded: vast increase; also recorded: dramatic elevation; also recorded: some varying levels of increase; also recorded: increases the number of BrdU positive cells
same,time to re-growth of hair near to its original length,hair re-growth,≤ 7 days
same,hair re-growth in treated areas compared to control areas,"hair re-growth; 5 ul, shaved skin",visibly complete hair growth; also recorded: visible re-growth of hair; also recorded: actual hair re-growth
same,behavioral or neurological changes,[3],no immediate behavioral or neurological changes
same,symptoms of toxicity,[3],no symptoms of toxicity
same,mutagenicity,[4],not mutagenic; also recorded: no mutagenesis or toxicity
same,absorption,"[5]; after intraperitoneal as well as oral administration, rodent studies",absorbed well
same,oral bioavailability,[5]; general statement,orally bioavailability
same,t1/2,"[5]; rat circulation, HPLC analysis",> 4 h
same,presence in epidermis,[6],can be extracted
same,rate of apoptosis,rodent cortical neurons; TUNEL assays,reducing the rate of apoptosis
same,activity in neuron culture,"rodent cortical neurons; bFGF, nerve growth factor, EGF, insulin-like growth factor",active primarily in the presence of various growth factors
same,survival of rodent cortical neurons,rodent cortical neurons,promoted the survival
